From patent US20070185094A1, “Novel 3-substitued-1,4-benzodiazepines” (ASTON UNIVERSITY, priority 2003, published 2007)
Like-named read-outs stand apart in the source and are kept apart here.

Assays:
CCKB receptor = molecular target: T1, CCKB receptor (Cavia porcellus, UniProt H0VZC5); assay: 125I-CCK-8 receptor binding assay, CCKB (guinea pig cerebral cortex)
T1 sequence (H0VZC5 1-426): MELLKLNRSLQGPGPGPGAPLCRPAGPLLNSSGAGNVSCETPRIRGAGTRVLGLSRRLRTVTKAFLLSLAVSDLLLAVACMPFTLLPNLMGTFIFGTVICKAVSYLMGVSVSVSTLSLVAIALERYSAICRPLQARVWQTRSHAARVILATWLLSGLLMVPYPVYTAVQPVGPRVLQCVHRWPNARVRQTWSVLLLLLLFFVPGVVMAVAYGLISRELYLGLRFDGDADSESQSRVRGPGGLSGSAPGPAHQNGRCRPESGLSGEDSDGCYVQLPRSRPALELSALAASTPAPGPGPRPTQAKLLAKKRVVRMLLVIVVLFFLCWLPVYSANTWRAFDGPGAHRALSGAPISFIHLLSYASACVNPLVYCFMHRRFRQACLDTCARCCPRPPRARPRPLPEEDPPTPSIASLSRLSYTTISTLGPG
Procedure: CCKA and CCKB receptor binding assays were performed, by using guinea pig cerebral cortex (CCKB) or rat pancreas (CCKA). […]. J. Pharmacol., 269, 249-254]. Pancreatic membranes were prepared in a similar way but by Charpentier et al [(1988), Cyclic cholecystokinin analogues with high selectivity for central receptors., Proc Natl Acad Sci USA, 85, 1968-1972]. The […] CCK binding assay: Tissues were homogenised in ice cold sucrose (0.32 M, 25 ml) for 15 strokes at 500 rpm and centrifuged at 13000 rpm for 10 mins. The supernatant was re-centrifuged at 13000 rpm for 20 mins. The resulting pellet was re-dispersed to the required volume of buffer at 500 rpm and stored in aliquots at […].
(§1) The samples were incubated {with membranes (0.1 mg/ml)} in 20 mM Hepes, 1 mM EGTA, 5 mM MgCl2, 150 mm NaCl, 0.25 mg/ml bacitracin at pH 6.5 for 2 hrs at RT and then […] by centrifugation at 1100 rpm for 5 minutes. The membrane pellets were washed twice with water and the bound radioactivity was measured in a Packard Cobra Auto-gamma counter (B5005). All binding assays were carried out with L-363, 260 as an internal non-specific standard. Controls (no compound) were also added. All samples were made in duplicate and repeated twice. All compounds were initially screened for percentage inhibition at 20 μM.

CCKA receptor = molecular target: T2, CCKA receptor (Rattus norvegicus, UniProt P30551); assay: 125I-CCK-8 receptor binding assay, CCKA (rat pancreas); conditions: for Ratio CCKB:CCKA: ratio of IC50 values
T2 construct: Pancreatic membranes were prepared in a similar way; from tissue; host or cells: rat pancreas membranes
T2 sequence (P30551 1-444): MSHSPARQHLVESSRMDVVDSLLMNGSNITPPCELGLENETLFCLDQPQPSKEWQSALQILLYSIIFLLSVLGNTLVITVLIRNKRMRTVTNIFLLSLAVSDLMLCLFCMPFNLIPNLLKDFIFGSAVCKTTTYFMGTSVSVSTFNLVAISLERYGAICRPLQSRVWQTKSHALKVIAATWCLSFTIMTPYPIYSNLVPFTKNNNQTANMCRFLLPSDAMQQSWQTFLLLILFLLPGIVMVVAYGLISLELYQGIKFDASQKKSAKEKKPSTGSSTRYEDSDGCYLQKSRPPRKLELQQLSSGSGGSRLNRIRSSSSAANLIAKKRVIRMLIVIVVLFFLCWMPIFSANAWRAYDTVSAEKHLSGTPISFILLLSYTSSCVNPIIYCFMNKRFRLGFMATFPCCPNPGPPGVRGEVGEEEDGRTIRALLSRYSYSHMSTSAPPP
Procedure: CCKA and CCKB receptor binding assays were performed, by using guinea pig cerebral cortex (CCKB) or rat pancreas (CCKA). Male guinea pig brain tissues were prepared according to the modified method described by Saita et al [(1994), Characterization of YM022: its CCKB/gastrin receptor binding profile and antagonism to CCK-8-induced Ca2+ mobilization., Eur. J. Pharmacol., 269, 249-254]. Pancreatic membranes were prepared in a similar way but by Charpentier et al [(1988), Cyclic cholecystokinin analogues with high selectivity for central receptors., Proc Natl Acad Sci USA, 85, 1968-1972]. The […] CCK binding assay: Tissues were homogenised in ice cold sucrose (0.32 M, 25 ml) for 15 strokes at 500 rpm and centrifuged at 13000 rpm for 10 mins. The supernatant was re-centrifuged at 13000 rpm for 20 mins. The resulting pellet was re-dispersed to the required volume of buffer at 500 rpm and stored in aliquots at […].
as §1

[1] = IC50 CCKB, Table 4, alkylated oxazepam derivatives

Compound `Cc1cccc(N(C)C2N=C(c3ccccc3)c3cc(Cl)ccc3N(CC(=O)C(C)(C)C)C2=O)c1` (racemic) [Example 64, 7-chloro-1-(3,3-dimethyl-2-oxobutyl)-3-(3-dimethylanilino)-5-phenyl-1,3-dihydro-2H-1,4-benzodiazepin-2-one] has an IC50 (CCKB receptor; read-out: IC50 CCKB) of roughly 8 nM and an IC50 (CCKA receptor) of roughly 24 nM.

`O=C1Nc2ccc(Cl)cc2C(c2ccccc2)=NC1Nc1cccc(Cl)c1` (single isomer, unassigned) [Example 2] showed an IC50 (CCKB receptor; CCKB IC50, Table 1) of 320 nM.

`CN(Cc1ccccc1)C1N=C(c2ccccc2)c2cc(Cl)ccc2NC1=O` (single isomer, unassigned) [Example 6] was tested, and the IC50 (CCKB receptor; CCKB IC50, Table 1) was 860 nM.

With `CC(C)N(C1CCCCC1)C1N=C(c2ccccc2)c2cc(Cl)ccc2NC1=O` (single isomer, unassigned) [Example 8] the IC50 (CCKB receptor; IC50 CCKB) was 190 nM.

`CCCCc1ccc(NC2N=C(c3ccccc3)c3cc(Cl)ccc3NC2=O)cc1` (stereo not drawn) [Example 3] was tested, and the IC50 (CCKB receptor; CCKB IC50, Table 1) was 580 nM.

Work on `Cc1ccc(NC2N=C(c3ccccc3)c3cc(Cl)ccc3NC2=O)cc1C` (stereo not drawn) [Example 4] yielded an IC50 (CCKB receptor; CCKB IC50, Table 1) of 660 nM.

For `O=C1Nc2ccc(Cl)cc2C(c2ccccc2)=NC1N1CCOCC1` (stereo not drawn) [Example 11], the IC50 (CCKB receptor; CCKB IC50, Table 1) was 2700 nM.

`Cc1c(NC2N=C(c3ccccc3)c3cc(Cl)ccc3NC2=O)c(=O)n(-c2ccccc2)n1C` (stereo not drawn) [Example 13] gave an IC50 (CCKB receptor; Table 2, read-out: IC50 CCKB) of 9300 nM.

`O=C1Nc2ccc(Cl)cc2C(c2ccccc2)=NC1N1CCCc2ccccc21` (stereo not drawn) [Example 17, 7-chloro-3-[3,4-dihydroquinolin-1(2H)-yl]-5-phenyl-1,3-dihydro-2H-1,4-benzodiazepin-2-one] gave an IC50 (CCKB receptor; IC50 CCKB, Table 2) of 7200 nM.

`CC(=O)c1ccccc1NC1N=C(c2ccccc2)c2cc(Cl)ccc2NC1=O` (stereo not drawn) [Example 18, 3-(2 acetylanilino)-7-chloro-5-phenyl-1,3-dihydro-2H-1,4-benzodiazepin-2-one] was tested, and the IC50 (CCKB receptor; IC50 CCKB, Table 2) was 8400 nM.

With `COc1cccc(NC2N=C(c3ccccc3)c3cc(Cl)ccc3NC2=O)c1` (stereo not drawn) [Example 19, 7-chloro-3-(3-methoxyanilino)-5-phenyl-1,3-dihydro-2H-1,4-benzodiazepin-2-one] the IC50 (CCKB receptor; IC50 CCKB, Table 2) was 1500 nM.

`COc1ccc(NC2N=C(c3ccccc3)c3cc(Cl)ccc3NC2=O)cc1OC` (stereo not drawn) [Example 20, 7-chloro-3-(3,4-dimethoxyanilino)-5-phenyl-1,3-dihydro-2H-1,4-benzodiazepin-2-one] was tested, and the IC50 (CCKB receptor; IC50 CCKB, Table 2) was 1200 nM.

Compound `COc1cc(NC2N=C(c3ccccc3)c3cc(Cl)ccc3NC2=O)cc(OC)c1C(C)=O` (stereo not drawn) [Example 21, 3-(4-acetyl-3,5-dimethoxyanilino)-7-chloro-5-phenyl-1,3-dihydro-2H-1,4-benzodiazepin-2-one] has an IC50 (CCKB receptor; Table 2, read-out: IC50 CCKB) of 5300 nM.

`O=C1Nc2ccc(Cl)cc2C(c2ccccc2)=NC1Nc1ccccc1` (stereo not drawn) [Example 22, 3-anilino-7-chloro-5-phenyl-1,3-dihydro-2H-1,4-benzodiazepin-2-one] gave an IC50 (CCKB receptor; IC50 CCKB, Table 2) of 4100 nM.

In the case of `O=C1Nc2ccc(Cl)cc2C(c2ccccc2)=NC1NCc1ccccc1` (stereo not drawn) [Example 23, 3-(benzylamino)-7-chloro-5-phenyl-1,3-dihydro-2H-1,4-benzodiazepin-2-one], the IC50 (CCKB receptor; IC50 CCKB, Table 2) is reported as 6000 nM.

Work on `CN(c1ccccc1)C1N=C(c2ccccc2)c2cc(Cl)ccc2NC1=O` (stereo not drawn) [Example 24, 7-chloro-3-(methylanilino)-5-phenyl-1,3-dihydro-2H-1,4-benzodiazepin-2-one] yielded an IC50 (CCKB receptor; IC50 CCKB) of 150 nM.

`CN(Cc1ccccc1)C1N=C(c2ccccc2)c2cc(Cl)ccc2NC1=O` (stereo not drawn) [Example 25] showed an IC50 (CCKB receptor; IC50 CCKB, Table 2) of 2900 nM.

Compound `CCCNC1N=C(c2ccccc2)c2cc(Cl)ccc2NC1=O` (stereo not drawn) [Example 28, 3-(propylamino)-7-chloro-5-phenyl-1,3-dihydro-2H-1,4-benzodiazepin-2-one] has an IC50 (CCKB receptor; IC50 CCKB, Table 2) of 8900 nM.

Work on `O=C1Nc2ccc(Cl)cc2C(c2ccccc2)=NC1NC1CCCCC1` (stereo not drawn) [Example 30, 7-chloro-3-(cyclohexylamino)-5-phenyl-1,3-dihydro-2H-1,4-benzodiazepin-2-one] yielded an IC50 (CCKB receptor; IC50 CCKB, Table 2) of 10100 nM.

For `Cc1ccc(NC2N=C(c3ccccc3)c3cc(Cl)ccc3NC2=O)cc1C` (stereo not drawn) [Example 31, 7-chloro-3-(3,4-dimethylanilino)-5-phenyl-1,3-dihydro-2H-1,4-benzodiazepin-2-one], the IC50 (CCKB receptor; IC50 CCKB) was 920 nM.

In the case of `O=C1Nc2ccc(Cl)cc2C(c2ccccc2)=NC1N1CCCCC1` (stereo not drawn) [Example 32, 7-chloro-3-(piperidin-1-yl)-5-phenyl-1,3-dihydro-2H-1,4-benzodiazepin-2-one], the IC50 (CCKB receptor; IC50 CCKB, Table 2) is reported as greater than 15000 nM.

`CC(C)N(C1CCCCC1)C1N=C(c2ccccc2)c2cc(Cl)ccc2NC1=O` (stereo not drawn) [Example 33, 7-chloro-3-(isopropylcyclohexylamino)-5-phenyl-1,3-dihydro-2H-1,4-benzodiazepin-2-one] showed an IC50 (CCKB receptor; IC50 CCKB, Table 2) greater than 15000 nM.

In the case of `CCN(C1CCCCC1)C1N=C(c2ccccc2)c2cc(Cl)ccc2NC1=O` (stereo not drawn) [Example 34, 7-chloro-3-(ethylcyclohexylamino)-5-phenyl-1,3-dihydro-2H-1,4-benzodiazepin-2-one], the IC50 (CCKB receptor; IC50 CCKB, Table 2) is reported as greater than 15000 nM.

Compound `O=C1Nc2ccc(Cl)cc2C(c2ccccc2)=NC1Nc1ccccc1[N+](=O)[O-]` (stereo not drawn) [Example 35, 7-chloro-3-(2-nitroanilino)-5-phenyl-1,3-dihydro-2H-1,4-benzodiazepin-2-one] has an IC50 (CCKB receptor; IC50 CCKB, Table 3) of 7500 nM and an IC50 (CCKA receptor; Table 3) greater than 20000 nM.

With `O=C1Nc2ccc(Cl)cc2C(c2ccccc2)=NC1Nc1cccc([N+](=O)[O-])c1` (stereo not drawn) [Example 36] the IC50 (CCKB receptor; IC50 CCKB, Table 3) was 6000 nM, the IC50 (CCKA receptor) was 11 nM and the “Ratio CCKB:CCKA” value (CCKA receptor; Table 3) was 545.

In the case of `O=C1Nc2ccc(Cl)cc2C(c2ccccc2)=NC1Nc1ccc([N+](=O)[O-])cc1` (stereo not drawn) [Example 37], the IC50 (CCKB receptor; IC50 CCKB, Table 3) is reported as 8500 nM and the IC50 (CCKA receptor; Table 3) is reported as greater than 20000 nM.

Compound `O=C1Nc2ccc(Cl)cc2C(c2ccccc2)=NC1Nc1ccccc1Cl` (stereo not drawn) [Example 38] has an IC50 (CCKB receptor; IC50 CCKB, Table 3) of 9300 nM and an IC50 (CCKA receptor; Table 3) greater than 20000 nM.

For `O=C1Nc2ccc(Cl)cc2C(c2ccccc2)=NC1Nc1cccc(Cl)c1` (stereo not drawn) [Example 39, 7-chloro-3-(3-chloroanilino)-5-phenyl-1,3-dihydro-2H-1,4-benzodiazepin-2-one], the IC50 (CCKB receptor; IC50 CCKB, Table 3) was 6200 nM, the IC50 (CCKA receptor) was 270 nM and the “Ratio CCKB:CCKA” value (CCKA receptor; Table 3) was 23.

In the case of `COc1ccccc1NC1N=C(c2ccccc2)c2cc(Cl)ccc2NC1=O` (stereo not drawn) [Example 41], the IC50 (CCKB receptor; IC50 CCKB, Table 3) is reported as 1500 nM and the IC50 (CCKA receptor; Table 3) is reported as greater than 20000 nM.

For `COc1cccc(NC2N=C(c3ccccc3)c3cc(Cl)ccc3NC2=O)c1` (stereo not drawn) [Example 42], the IC50 (CCKA receptor) was 10 nM and the “Ratio CCKB:CCKA” value (CCKA receptor; Table 3) was 450.

`C#CCN1C(=O)C(O)N=C(c2ccccc2)c2cc(Cl)ccc21` (stereo not drawn) [Example 58, 7-chloro-3-hydroxy-5-phenyl-1-prop-2-ynyl-1,3-dihydro-2H-1,4-benzodiazepin-2-one] gave an IC50 (CCKB receptor; [1]) of 960 nM.

Work on `O=C1C(O)N=C(c2ccccc2)c2cc(Cl)ccc2N1Cc1ccccc1` (stereo not drawn) [Example 59, 7-chloro-3-hydroxy-5-phenyl-1-benzyl-1,3-dihydro-2H-1,4-benzodiazepin-2-one] yielded an IC50 (CCKB receptor; [1]) of 760 nM.

`C=CCN1C(=O)C(O)N=C(c2ccccc2)c2cc(Cl)ccc21` (stereo not drawn) [Example 60, 7-chloro-3-hydroxy-5-phenyl-1-allyl-1,3-dihydro-2H-1,4-benzodiazepin-2-one] was tested, and the IC50 (CCKB receptor; [1]) was 980 nM.

Work on `CCOC(=O)N1C(=O)C(O)N=C(c2ccccc2)c2cc(Cl)ccc21` (stereo not drawn) [Example 61, 7-chloro-3-hydroxy-5-phenyl-1-ethoxycarbonyl-1,3-dihydro-2H-1,4-benzodiazepin-2-one] yielded an IC50 (CCKB receptor; [1]) of 690 nM.

In the case of `O=C(CN1C(=O)C(O)N=C(c2ccccc2)c2cc(Cl)ccc21)c1ccccc1` (stereo not drawn) [Example 62, 7-chloro-3-hydroxy-5-phenyl-1-phenacyl-1,3-dihydro-2H-1,4-benzodiazepin-2-one], the IC50 (CCKB receptor; [1]) is reported as 200 nM.
